We go through 15 compounds from PubChem BioAssay (NCI).

Some test systems named below: T-47D breast; SF-539 CNS; ACHN renal; MALME-3M melanoma; MDA-MB-435; HCT-116 colon; M14 melanoma; HL-60(TB) leukemia; HCT-15 colon; A498 renal.
Assay in all cases: inhibition of tumour cell growth, NCI panel, 48 h

Several values for one entry are separate records, joined by “and”; a condition that tells them apart may be missing. Identical values can stand only once.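 Method: 48-hour compound exposure of cells in 96-well plates, five concentrations, linear interpolation of endpoints. GI50 = concentration required for 50% inhibition of growth. At the TGI there is no net growth.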 Where a SMILES comes first, the peptide text is derived from it. Bridges are numbered along the chain shown (N, C = ends). [ ]: non-standard residue; d: D form. The star is where a group is joined. ξ: configuration not given here. X26 = O=C(/C=C/C=C/C=C/C=C/C=C/C(=O)*)NC1=C(O)CCC1=O; NMeA = CN[C@@H](C)C(=O)O; ξF = NC(Cc1ccccc1)C(=O)O; ξA = CC(N)C(=O)O

Turning to `COc1cc2c(cc1OC)[C@H]1CN3CCC[C@H]3C=C1c1ccc(OC)c(O)c1-2`, the TGI with T-47D breast is 0.132 µM; in the experiment with SF-539 CNS it was 0.0058 µM and 0.0358 µM; with ACHN renal, 0.0154 µM; in the experiment with MALME-3M melanoma it was 0.00179 µM; with MDA-MB-435, 0.0269 µM; in the experiment on HCT-116 colon, 0.00302 µM. This compound also returned a TGI in the experiment on M14 melanoma of 0.000985 µM.
Regarding `CC1NC(=O)[C@H](C)N(C)C(=O)[C@@H]2CCCN2C(=O)[C@@H](NC(=O)C(Cc2ccccc2)NC(=O)/C=C/C=C/C=C/C=C/C=C/C(=O)NC2=C(O)CCC2=O)COC(=O)[C@@H]2CCCN2C1=O` (stereo partly specified) (X26-[ξF]SP[NMeA][ξA]P; ester 2-C), the TGI in the experiment on HL-60(TB) leukemia, with T-47D breast, in the experiment on HCT-15 colon, with SF-539 CNS, with ACHN renal and in the experiment with MALME-3M melanoma was above 100 µM in each case. Also, the TGI with MDA-MB-435, in the experiment with HCT-116 colon and in the experiment on M14 melanoma was above 100 µM throughout.
Take `Nc1nc(N)c(N=O)c(Nc2ccc(Br)cc2)n1`: the TGI in the experiment with HL-60(TB) leukemia was above 100 µM; with HCT-15 colon it was above 100 µM; in the experiment with SF-539 CNS it was 56.5 µM; with ACHN renal, 49.3 µM; in the experiment on A498 renal, 35.2 µM; in the experiment with MALME-3M melanoma, 44.6 µM. Moreover, the TGI in the experiment on HCT-116 colon turned out to be 37.8 µM; in the experiment with M14 melanoma, 52.8 µM.
As to `CC(=O)OCC1OC(n2cc(I)c(=O)[nH]c2=O)C(OC(C)=O)C(OC(C)=O)C1OC(C)=O` (stereo unspecified), the TGI with HL-60(TB) leukemia, in the experiment with HCT-15 colon, in the experiment with ACHN renal, in the experiment on A498 renal, in the experiment on MALME-3M melanoma and in the experiment on HCT-116 colon was above 100 µM in each case. The compound also came in with a TGI in the experiment on M14 melanoma above 100 µM.
For the compound `CCN1CCCC(NCc2c3ccccc3c(CNC3CCCN(CC)C3)c3ccccc23)C1` (stereo unspecified), the TGI worked out at 22.7 µM in the experiment on HL-60(TB) leukemia; 43.9 µM in the experiment with HCT-15 colon; 35.7 µM in the experiment with SF-539 CNS; 28.2 µM in the experiment on A498 renal; 40.9 µM with MALME-3M melanoma; 23.3 µM in the experiment on HCT-116 colon.
For the compound `O=C(CNc1c(Cl)cccc1Cl)NC1C=Cc2ccc(S(=O)(=O)Nc3c(Cl)cccc3Cl)cc2C1=O` (stereo unspecified), the TGI in the experiment on HL-60(TB) leukemia, in the experiment with HCT-15 colon, in the experiment with SF-539 CNS, in the experiment on ACHN renal, in the experiment on MALME-3M melanoma and in the experiment on MDA-MB-435 was above 100 µM each time. Besides, the TGI in the experiment with HCT-116 colon and in the experiment on M14 melanoma was above 100 µM throughout.
Turning to `CC12CCC3C(CCC4CC(OC(=O)Cc5ccc(N(CCCl)CCCl)cc5)CCC43C)C1CCC(=O)N2` (stereo unspecified), the TGI in the experiment on HL-60(TB) leukemia was 22 µM; with HCT-15 colon it was 28.3 µM; in the experiment on SF-539 CNS it was 29.4 µM; in the experiment with ACHN renal, 23.2 µM; in the experiment on A498 renal, 31.4 µM; in the experiment on MALME-3M melanoma, 32.9 µM. In addition, the TGI turned out to be 28.3 µM in the experiment with HCT-116 colon and 32.2 µM with M14 melanoma.
On to `COc1c(O)c2c3c(c(C)cc(O)c3c1O)C(=O)C(O)(C(C)(C)C(C)=O)C2=O` (stereo unspecified), for which the TGI in the experiment on HL-60(TB) leukemia, in the experiment on HCT-15 colon, with SF-539 CNS, in the experiment with ACHN renal, in the experiment with MALME-3M melanoma and in the experiment on HCT-116 colon was above 100 µM in each case. Also, in the experiment with M14 melanoma, the TGI was above 100 µM.
For the compound `N/C(=N\S(=O)(=O)c1c(C(F)(F)F)cccc1C(F)(F)F)Nc1ccc(Cl)cc1`, the TGI in the experiment with HL-60(TB) leukemia is 51.9 µM; with T-47D breast, above 100 µM; in the experiment with HCT-15 colon it was above 100 µM; with SF-539 CNS it was above 100 µM; in the experiment on ACHN renal, 56 µM; in the experiment on A498 renal, 50.6 µM. Also, the TGI in the experiment on MALME-3M melanoma is 58.4 µM; in the experiment with HCT-116 colon, above 100 µM; in the experiment on M14 melanoma it was above 100 µM.
As to `c1ccc2c(c1)c1c(n2CCOCCN2CCOCC2)CCCC1`, the TGI is 51.9 µM with HL-60(TB) leukemia; above 100 µM in the experiment with T-47D breast; above 100 µM with HCT-15 colon; above 100 µM with SF-539 CNS; above 100 µM with ACHN renal; 98.9 µM in the experiment on A498 renal. Further, the figures for the TGI with MALME-3M melanoma, in the experiment with HCT-116 colon and with M14 melanoma were 29 µM, above 100 µM and 30.9 µM, respectively.
As to `CC(O)CCCOC(c1ccccc1)(c1ccccc1)c1ccccc1` (stereo unspecified), the TGI in the experiment on HL-60(TB) leukemia is above 55.1 µM; in the experiment with HCT-15 colon, 29.8 µM; with SF-539 CNS, 31.2 µM; in the experiment with ACHN renal it was 27.8 µM; in the experiment with A498 renal it was 34.7 µM; in the experiment with MALME-3M melanoma it was 27.8 µM. In addition, the results for the TGI in the experiment with MDA-MB-435, in the experiment with HCT-116 colon and with M14 melanoma were 30.4 µM, 26.9 µM and 29.1 µM, respectively.
`CCC1=CC2CN3Cn4c(c(COCc5c6n(c7ccccc57)CN5CC7C=C(CC)C5C6(C(=O)OC)C7)c5ccccc54)C(C(=O)OC)(C2)C13`: the TGI with HL-60(TB) leukemia, in the experiment on HCT-15 colon, in the experiment on ACHN renal, in the experiment with A498 renal, with MALME-3M melanoma and in the experiment with HCT-116 colon was above 100 µM in each case. Besides, the TGI with M14 melanoma was above 100 µM.
On to `N=C(N)c1ccc(-c2ccc(-c3cccs3)s2)cc1`, for which the GI50 was 1.65 µM with SF-539 CNS, 1.7 µM in the experiment on ACHN renal, 0.462 µM in the experiment with A498 renal and 1.69 µM with MALME-3M melanoma. Further, the TGI in the experiment on SF-539 CNS was determined as 3.09 µM; in the experiment on ACHN renal it was 3.14 µM; in the experiment on A498 renal it was 3.04 µM; in the experiment with MALME-3M melanoma, 3.23 µM.
For `O=[N+]([O-])c1ccc(/C=C/c2cc(-c3ccccc3)nc3ccc4ccccc4c23)cc1`, the TGI in the experiment with HL-60(TB) leukemia, in the experiment on HCT-15 colon, in the experiment with SF-539 CNS, in the experiment on ACHN renal, in the experiment on A498 renal and in the experiment on MALME-3M melanoma was above 100 µM in each case. Further, the TGI with MDA-MB-435, with HCT-116 colon and in the experiment on M14 melanoma was above 100 µM throughout.
`CC1=NN(C(=O)CC(=O)Nc2ccccc2F)C(=O)C1N=Nc1ccccc1[N+](=O)[O-]` (stereo unspecified): the TGI in the experiment on HCT-15 colon, with SF-539 CNS, in the experiment on MALME-3M melanoma, with HCT-116 colon and with M14 melanoma was above 100 µM throughout.
